From ChEMBL document CHEMBL1201862, “PubChem BioAssay data set” (2004)
Calls of active or inactive are those of the source.

Experiments:
[1] = system: BJ; experiment: BJ-TERT fibroblast viability loss – cell-based, RAS-independent, luminescence, dose response (AID 1933); type: functional; conditions: Homo sapiens
[2] = molecular target: Paired box protein Pax-8 (Homo sapiens, UniProt Q06710); experiment: PAX8 transcriptional activity inhibition in RMG-I – RMG-I cells, luciferase, cherry-pick, dose response (AID 687027); type: functional, cell-based;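 further: luciferase reporter driven by Pax8 target thyroperoxidase promoter measured by SteadyGlo luminescence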
[3] = system: BJ; experiment: cells; type: functional, cell-based; conditions: Homo sapiens
[4] = molecular target: T1, Microphthalmia-associated transcription factor (Homo sapiens, UniProt O75030); experiment: reducers of TRPM1 reporter luminescence, concentration series – cell-based, SK-MEL-5, cherry-picked, set 3, MITF inhibitor project, dose response (AID 493073); type: functional;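 further: SK-MEL-5 melanoma cells with luciferase driven by the MITF target TRPM1 promoter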
T1 sequence (O75030 whole entry): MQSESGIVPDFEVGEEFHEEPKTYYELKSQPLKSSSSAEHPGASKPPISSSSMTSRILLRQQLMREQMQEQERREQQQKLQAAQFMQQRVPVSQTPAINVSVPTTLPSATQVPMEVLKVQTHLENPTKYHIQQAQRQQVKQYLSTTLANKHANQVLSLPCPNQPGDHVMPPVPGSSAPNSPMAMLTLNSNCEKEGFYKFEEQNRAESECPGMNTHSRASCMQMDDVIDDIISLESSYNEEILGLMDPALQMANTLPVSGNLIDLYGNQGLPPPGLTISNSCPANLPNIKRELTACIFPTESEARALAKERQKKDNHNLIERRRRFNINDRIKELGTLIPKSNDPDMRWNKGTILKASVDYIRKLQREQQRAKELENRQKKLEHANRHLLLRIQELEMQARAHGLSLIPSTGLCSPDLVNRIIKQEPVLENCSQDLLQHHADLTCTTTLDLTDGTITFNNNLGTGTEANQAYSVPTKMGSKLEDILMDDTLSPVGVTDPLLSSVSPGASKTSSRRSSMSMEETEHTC

[5] = system: A-375; experiment: proliferation inhibition in MITF-low A375 cells – cell-based, cherry-pick samples, set 2, counter-screen for MITF modulator project, dose response (AID 540335); type: functional; conditions: Homo sapiens
[6] = system: BJ; experiment: BJ-TERT-LT-ST fibroblast viability loss – cell-based, RAS-independent, luminescence, dose response (AID 1935); type: functional; conditions: Homo sapiens;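 further: BJ fibroblasts immortalized with TERT plus LT and ST oncogenes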
[7] = system: BJ; experiment: growth inhibition of engineered Ras-driven BJ cells – cell-based, alamar blue fluorescence, cherrypicked samples, dose response (AID 2631); type: functional; conditions: Homo sapiens;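 further: confirmatory dose-response assay in RAS-dependent BJ fibroblasts engineered with TERT, LT and ST, with cytotoxicity read by fluorescence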
[8] = DRD fibroblast viability loss – cell-based, non-viral oncogenic, luminescence, dose response (AID 1934); type: functional; conditions: Homo sapiens
[9] = molecular target: ATP-dependent molecular chaperone HSP82 (Candida albicans (strain WO-1) (Yeast), UniProt C4YTQ8); experiment: steroid-induced GRE reporter decrease in yeast – S. cerevisiae, luminescence, Hsp90 inhibitor project, dose response (AID 2400); type: functional, cell-based;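 further: beta-galactosidase luminescence from glucocorticoid response element reporter as proxy for Hsp90 function; inhibitor potency where signal loss means Hsp90 inhibition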
[10] = molecular target: T2, Streptokinase A (Streptococcus pyogenes serotype M1, UniProt P10520); experiment: viability-normalized secreted streptokinase activity reduction – plasminogen activation absorbance, OD405, dose response (AID 1914); type: functional, Streptococcus pyogenes M1 GAS;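 further: secreted streptokinase activity via plasminogen activation per viability signal from cell pellet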
T2 sequence (P10520 whole entry): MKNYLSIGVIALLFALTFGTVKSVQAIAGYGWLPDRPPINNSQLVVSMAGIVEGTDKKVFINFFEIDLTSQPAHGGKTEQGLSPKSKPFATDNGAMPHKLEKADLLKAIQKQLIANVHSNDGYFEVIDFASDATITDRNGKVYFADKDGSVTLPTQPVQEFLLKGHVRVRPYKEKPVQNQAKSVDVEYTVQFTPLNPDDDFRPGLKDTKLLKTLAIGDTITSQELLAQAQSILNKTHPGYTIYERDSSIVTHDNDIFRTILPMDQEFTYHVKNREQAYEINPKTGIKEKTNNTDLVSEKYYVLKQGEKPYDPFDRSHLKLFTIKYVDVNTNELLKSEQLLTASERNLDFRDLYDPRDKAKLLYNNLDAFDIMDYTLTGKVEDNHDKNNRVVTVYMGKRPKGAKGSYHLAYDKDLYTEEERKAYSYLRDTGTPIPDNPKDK

[11] = molecular target: Serine/threonine-protein phosphatase (Candida dubliniensis (strain CD36 / CBS 7987 / NCPF 3949 / NRRLY-17841) (Yeast), UniProt B9W6M3); experiment: blockers of CaCl2-induced CDRE-lacZ signaling – S. cerevisiae, luminescence, secondary, dose response (AID 2388); type: functional, cell-based;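 further: yeast reporter cells carrying a calcineurin-responsive lacZ construct stimulated with calcium chloride; luminescent beta-galactosidase reporter signal in whole cells rather than isolated phosphatase activity; potency for inhibition where a drop in reporter signal means calcineurin blockade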
[12] = molecular target: Dual specificity protein kinase CLK1 (Homo sapiens, UniProt P49759); experiment: inhibition of human CLK1 activity – biochemical, cherry-picked samples, selectivity assay for Dyrk1A inhibitor project, dose response (AID 588811)
[13] = alpha-synuclein stem-loop luciferase translation blockers – H4 neuroglioma cells, luminescence, confirmation (AID 1988); type: functional, cell-based
[14] = off-target signal loss in HeLa-CEM21 co-culture – HeLa F-luc CTL cells, cherry-picked, counter-screen for HIV-1 Env fusion inhibitor project, dose response (AID 652040); type: functional, cell-based;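 further: potency for signal decrease marking cytotoxic or nonspecific inhibition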
[15] = molecular target: CAAX prenyl protease 2 (Homo sapiens, UniProt Q9Y256); experiment: inhibition of Ras-converting CAAX protease Rce1 – biochemical, yeast membranes, quenched-peptide fluorescence, cherry-pick, dose response (AID 588849)
[16] = viability loss in CEM21 cells – cell-based, CellTiter-Glo luminescence, cherry-picked, cytotoxicity control for viral fusion inhibitor project, dose response (AID 652042); type: functional;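 further: potency for signal decrease meaning cytotoxicity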
[17] = blockers of HIV-1 envelope-mediated cell-cell fusion – cherry-pick, dose response (AID 652057); type: functional, cell-based
[18] = molecular target: T3, Aminopeptidase N (Plasmodium falciparum FcB1/Columbia, UniProt O96935); experiment: malaria alanyl aminopeptidase activity blockers – biochemical, fluorogenic H-Leu-NHMec substrate, 1536-well (AID 1445); set-up: species or system Plasmodium falciparum 3D7, 3D7
T3 sequence (O96935 whole entry): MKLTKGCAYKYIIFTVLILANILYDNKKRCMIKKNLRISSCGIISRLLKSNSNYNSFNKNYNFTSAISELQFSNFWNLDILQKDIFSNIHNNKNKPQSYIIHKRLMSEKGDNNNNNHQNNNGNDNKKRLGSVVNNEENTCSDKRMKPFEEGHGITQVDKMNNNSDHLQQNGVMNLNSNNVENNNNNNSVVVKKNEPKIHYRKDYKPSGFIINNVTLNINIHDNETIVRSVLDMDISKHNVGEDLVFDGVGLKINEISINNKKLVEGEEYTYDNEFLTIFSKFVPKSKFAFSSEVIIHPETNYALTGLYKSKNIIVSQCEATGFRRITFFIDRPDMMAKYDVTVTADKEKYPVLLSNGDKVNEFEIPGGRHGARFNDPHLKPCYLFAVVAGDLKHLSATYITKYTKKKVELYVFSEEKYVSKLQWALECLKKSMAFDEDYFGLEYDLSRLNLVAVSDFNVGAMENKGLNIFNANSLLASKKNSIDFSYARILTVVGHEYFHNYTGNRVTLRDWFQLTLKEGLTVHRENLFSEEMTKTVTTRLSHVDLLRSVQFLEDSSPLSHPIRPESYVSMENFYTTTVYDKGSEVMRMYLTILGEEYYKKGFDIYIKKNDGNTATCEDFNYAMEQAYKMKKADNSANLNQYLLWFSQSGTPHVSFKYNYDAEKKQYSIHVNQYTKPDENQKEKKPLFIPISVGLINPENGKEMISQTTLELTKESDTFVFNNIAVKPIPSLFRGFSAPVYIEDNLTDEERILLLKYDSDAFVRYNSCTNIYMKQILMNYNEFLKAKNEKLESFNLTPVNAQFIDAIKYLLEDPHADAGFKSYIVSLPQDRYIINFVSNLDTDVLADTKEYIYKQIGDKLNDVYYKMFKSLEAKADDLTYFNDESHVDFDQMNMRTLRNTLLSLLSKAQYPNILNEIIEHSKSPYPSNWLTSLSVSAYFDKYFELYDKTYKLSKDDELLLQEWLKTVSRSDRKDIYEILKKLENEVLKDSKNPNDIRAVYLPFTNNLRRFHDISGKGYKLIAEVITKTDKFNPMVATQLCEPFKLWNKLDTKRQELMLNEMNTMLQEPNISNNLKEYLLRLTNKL

[19] = molecular target: T4, Neuropeptide Y receptor type 2 (Homo sapiens, UniProt P49146); experiment: Fluorescence-based cell-based high-throughput dose response assay for agonists of NPY-Y2. [Related pubchem assays: 1703 (Screening assay (CNGC inhibitors).), 1359 (Screening assay (NPY-Y2 potentiators or agonists).), 1304 (Screening assay (NPY-Y1 potentiators or agonists).), 1710 (Screening assay (NPY-Y2 agonists).), 1791 (Summary AID.)]; type: functional
T4 sequence (P49146 whole entry): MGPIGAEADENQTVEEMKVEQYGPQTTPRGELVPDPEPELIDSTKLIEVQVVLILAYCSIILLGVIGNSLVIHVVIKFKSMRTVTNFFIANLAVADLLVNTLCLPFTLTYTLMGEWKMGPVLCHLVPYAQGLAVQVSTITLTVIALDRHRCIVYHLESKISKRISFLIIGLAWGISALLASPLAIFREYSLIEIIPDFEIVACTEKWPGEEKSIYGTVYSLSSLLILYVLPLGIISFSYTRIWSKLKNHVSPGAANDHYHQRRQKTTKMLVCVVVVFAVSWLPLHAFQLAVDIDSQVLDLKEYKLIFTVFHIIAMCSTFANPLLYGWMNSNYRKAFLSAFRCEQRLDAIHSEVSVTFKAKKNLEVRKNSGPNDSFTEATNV

[20] = CCR5-tropic HIV-1 fusion blockers – cell-based, CCR5-tropic Env, dose response (AID 2279); type: functional
[21] = Luminescence Cell-Based Dose Response HTS to Identify Inhibitors of 5'UTR Stem-Loop Driven Prion Protein mRNA Translation in H4 Neuroglioblastoma Cells. [Related pubchem assays: 1827 (Project Summary), 1813 (Primary HTS)]; type: functional
[22] = luciferase reporter signal suppression in cells – H4 neuroglioma cells, luminescence, dose response (AID 1990); type: functional, cell-based
[23] = blockers of HIV-1 ZM109 envelope-driven cell-cell fusion – HeLa effector, CEM target cells, luciferase, cherry-pick, dose response (AID 652058); type: functional, cell-based;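 further: luciferase signal from HIV-1 Env mediated cell-cell fusion of effector and target cells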
[24] = molecular target: T5, Neuropeptide Y receptor type 1 (Homo sapiens, UniProt P25929); experiment: Fluorescence-based counterscreen for agonists of NPY-Y2: cell-based high-throughput dose response assay for agonists of NPY-Y1.; type: functional
T5 sequence (P25929 whole entry): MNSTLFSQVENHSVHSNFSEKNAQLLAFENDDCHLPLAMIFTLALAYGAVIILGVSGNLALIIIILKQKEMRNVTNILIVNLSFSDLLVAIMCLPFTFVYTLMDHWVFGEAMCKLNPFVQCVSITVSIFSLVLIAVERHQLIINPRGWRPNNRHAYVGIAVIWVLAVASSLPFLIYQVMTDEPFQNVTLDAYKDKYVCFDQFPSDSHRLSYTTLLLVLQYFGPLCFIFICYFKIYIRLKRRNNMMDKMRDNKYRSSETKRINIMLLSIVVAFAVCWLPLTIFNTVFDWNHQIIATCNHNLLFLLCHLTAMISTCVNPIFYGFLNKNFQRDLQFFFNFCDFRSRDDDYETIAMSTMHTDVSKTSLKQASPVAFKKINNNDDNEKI

[25] = HIV-1 AD8 envelope cell-cell fusion blockers – cherry-pick, dose response (AID 652062); type: functional, cell-based;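 further: luciferase signal from cell-cell fusion driven by HIV-1 clade B AD8 Env; potency is for inhibitors of fusion seen as a drop in luminescence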
[26] = system: HEK293; experiment: Fluorescence-based counterscreen for potentiators or agonists of NPY-Y2: cell-based high-throughput dose response assay to identify inhibitors of cyclic nucleotide gated ion channel (CNGC) activity. In this assay, the parental HEK293 cell line transfected with a cyclic-nucleotide gated ion channel (CNGC)-based cAMP sensor is used to measure inhibition of isoproterenol-induced CNGC activity by test compound.; type: functional; conditions: Homo sapiens;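 further: stimulus is 1 µM isoproterenol at EC100 plus PDE inhibitor Ro 20-1724 at 25 µM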
[27] = system: INS1; experiment: INS-1E survival protection against cytokine death – cell-based, luminescence, retest, dose response (AID 449756); type: functional; conditions: Rattus norvegicus;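 further: cell death triggered by IL-1 beta plus TNF-alpha plus IFN-gamma mixture; protective hits raise ATP signal compared with cytokine alone wells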

Dual specificity protein kinase CLK1, sequence (P49759 whole entry): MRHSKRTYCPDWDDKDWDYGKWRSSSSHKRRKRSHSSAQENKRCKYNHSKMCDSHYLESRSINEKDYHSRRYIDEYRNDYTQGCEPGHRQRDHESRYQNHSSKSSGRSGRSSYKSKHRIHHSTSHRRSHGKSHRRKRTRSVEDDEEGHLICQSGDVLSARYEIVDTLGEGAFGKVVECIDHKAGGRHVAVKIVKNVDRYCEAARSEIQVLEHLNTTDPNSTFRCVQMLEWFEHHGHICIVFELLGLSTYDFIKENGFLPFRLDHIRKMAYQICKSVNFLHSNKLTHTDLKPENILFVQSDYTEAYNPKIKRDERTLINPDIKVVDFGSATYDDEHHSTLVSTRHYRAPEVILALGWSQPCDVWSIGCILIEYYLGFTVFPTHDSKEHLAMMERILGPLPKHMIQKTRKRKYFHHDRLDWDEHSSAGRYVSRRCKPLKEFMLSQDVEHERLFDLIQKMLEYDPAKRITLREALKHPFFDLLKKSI
Paired box protein Pax-8, sequence (Q06710 whole entry): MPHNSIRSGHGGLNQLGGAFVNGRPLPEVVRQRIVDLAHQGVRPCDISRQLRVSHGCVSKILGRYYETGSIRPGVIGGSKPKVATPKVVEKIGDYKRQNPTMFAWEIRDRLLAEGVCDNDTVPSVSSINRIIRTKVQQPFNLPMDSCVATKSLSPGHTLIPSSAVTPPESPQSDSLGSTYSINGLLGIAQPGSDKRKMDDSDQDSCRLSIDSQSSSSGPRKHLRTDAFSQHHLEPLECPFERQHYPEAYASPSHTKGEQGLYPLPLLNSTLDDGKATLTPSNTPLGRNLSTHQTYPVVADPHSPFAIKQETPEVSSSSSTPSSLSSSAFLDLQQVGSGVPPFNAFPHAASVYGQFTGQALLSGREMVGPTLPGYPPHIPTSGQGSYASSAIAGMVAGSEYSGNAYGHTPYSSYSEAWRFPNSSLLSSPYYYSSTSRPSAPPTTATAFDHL
ATP-dependent molecular chaperone HSP82, sequence (C4YTQ8 whole entry): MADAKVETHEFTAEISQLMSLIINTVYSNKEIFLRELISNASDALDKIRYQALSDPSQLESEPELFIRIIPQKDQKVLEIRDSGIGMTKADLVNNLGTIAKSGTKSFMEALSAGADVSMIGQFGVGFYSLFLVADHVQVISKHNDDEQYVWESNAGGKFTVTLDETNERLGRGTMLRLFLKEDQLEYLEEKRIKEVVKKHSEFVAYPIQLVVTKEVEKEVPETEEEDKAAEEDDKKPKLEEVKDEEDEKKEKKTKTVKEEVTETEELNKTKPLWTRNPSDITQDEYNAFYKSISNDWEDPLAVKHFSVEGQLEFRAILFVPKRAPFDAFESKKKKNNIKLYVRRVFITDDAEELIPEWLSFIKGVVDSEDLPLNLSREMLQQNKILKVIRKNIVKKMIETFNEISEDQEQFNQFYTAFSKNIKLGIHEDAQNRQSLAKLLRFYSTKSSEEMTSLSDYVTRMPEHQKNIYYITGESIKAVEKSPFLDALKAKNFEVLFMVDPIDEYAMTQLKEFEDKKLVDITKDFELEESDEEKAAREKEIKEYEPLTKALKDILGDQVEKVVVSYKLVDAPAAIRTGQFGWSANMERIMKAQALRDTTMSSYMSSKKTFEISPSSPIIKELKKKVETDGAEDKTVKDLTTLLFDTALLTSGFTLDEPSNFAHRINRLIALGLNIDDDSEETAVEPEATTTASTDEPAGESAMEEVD
Serine/threonine-protein phosphatase, sequence (B9W6M3 whole entry): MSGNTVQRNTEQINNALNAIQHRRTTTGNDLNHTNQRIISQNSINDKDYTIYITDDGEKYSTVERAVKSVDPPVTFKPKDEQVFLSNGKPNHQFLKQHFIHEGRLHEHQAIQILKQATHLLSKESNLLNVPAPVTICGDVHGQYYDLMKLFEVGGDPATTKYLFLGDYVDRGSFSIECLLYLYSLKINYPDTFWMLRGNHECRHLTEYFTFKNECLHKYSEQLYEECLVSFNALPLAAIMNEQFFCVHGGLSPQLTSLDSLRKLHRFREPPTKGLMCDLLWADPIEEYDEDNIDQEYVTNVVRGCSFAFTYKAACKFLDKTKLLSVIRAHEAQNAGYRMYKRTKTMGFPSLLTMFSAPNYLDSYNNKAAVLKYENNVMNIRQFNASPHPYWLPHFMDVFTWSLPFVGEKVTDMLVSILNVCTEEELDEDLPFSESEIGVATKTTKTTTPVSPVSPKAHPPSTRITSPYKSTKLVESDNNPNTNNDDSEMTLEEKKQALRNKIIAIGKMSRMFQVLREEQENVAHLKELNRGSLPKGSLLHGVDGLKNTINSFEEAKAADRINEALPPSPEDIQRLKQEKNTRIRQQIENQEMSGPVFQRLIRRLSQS
CAAX prenyl protease 2, sequence (Q9Y256 whole entry, the tested form may be a part): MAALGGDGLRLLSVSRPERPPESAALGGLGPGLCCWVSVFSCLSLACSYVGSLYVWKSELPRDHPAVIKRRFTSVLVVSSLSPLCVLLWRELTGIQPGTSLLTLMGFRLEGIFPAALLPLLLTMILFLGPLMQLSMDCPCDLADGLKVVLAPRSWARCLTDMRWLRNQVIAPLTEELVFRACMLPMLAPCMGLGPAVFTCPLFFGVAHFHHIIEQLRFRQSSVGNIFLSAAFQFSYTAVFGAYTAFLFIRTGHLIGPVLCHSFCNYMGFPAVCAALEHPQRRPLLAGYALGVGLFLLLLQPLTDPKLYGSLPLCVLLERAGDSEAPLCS

SMILES: Cc1cc(-n2c(SCC(=O)NCCC3=CCCCC3)nc3nnc(C)c-3c2N)ccc1Cl
- EC50 [1]: 6.61 µM (active)
- AC50 [2]: 7.33 µM (active)
- EC50 [3]: > 150 µM (not active)
- AC50 [4]: 17.1 µM (active)
- AC50 [5]: 37.6 µM (active)
- EC50 [6]: > 150 µM (inconclusive)
- EC50 [7]: > 133 µM (inactive)
- EC50 [8]: 14 µM (active)

SMILES: O=C(c1cc(-c2ccccc2)n[nH]1)N1CCc2c([nH]c3ccccc23)C1c1ccccn1 (stereo not given)
- EC50 [9]: 31.2 µM (active)
- EC50 [10]: 26.3 µM (active)
- EC50 [11]: > 180 µM (inactive)

SMILES: Clc1ccc(Nc2nccc(-c3ccc4c(c3)OCO4)n2)cc1
- AC50 [12]: 15.8 µM (active)

SMILES: c1cncc(-c2nc(NCc3ccco3)c3ccccc3n2)c1
- AC50 [12]: 17.9 µM (active)

SMILES: O=C(Nc1cc(S(=O)(=O)N2CCCCC2)ccc1Cl)c1ccccc1NS(=O)(=O)c1ccc(F)cc1
- EC50 [13]: 13.7 µM (active)
- AC50 [14]: 6.21 µM (active)
- AC50 [15]: 20.7 µM (active)
- AC50 [16]: 32.9 µM (active)
- AC50 [17]: 28.4 µM (active)
- IC50 [18]: 44.9 µM (active)
- EC50 [19]: 25.6 µM (not active)
- IC50 [20]: 2 µM (active)
- AC50 [2]: 5.08 µM (active)
- EC50 [21]: > 60 µM (not active)
- EC50 [22]: 13.8 µM (active)
- AC50 [23]: 25.6 µM (active)
- EC50 [24]: 12.7 µM (not active)
- EC50 [7]: > 133 µM (inactive)
- AC50 [25]: 10.8 µM (active)
- EC50 [26]: 4.53 µM (active)
- AC50 [27]: 3.42 µM (active)
